The values below come from patent US20260022143A1, “Cyclic Peptide Inhibitors of IL-23” (JANSSEN PHARMACEUTICA NV, priority 2022, published 2026).

The structures appear in SMILES notation. Starred links: 1 amine or outer side, 2 acyl side, 3 side chain; linkers in the order of their positions; H or OH if unused. Positions of bridges follow the written chain, without caps; N, C: chain ends. Non-standard residues stand in square brackets, D forms with d. Residues, ends and D or L forms follow the SMILES beside them. *: point of attachment. X36 = C[N+]1(CCCc2cn(-c3ccc(C[C@H](N[*:1])C(=O)[*:2])cc3)nn2)CCOCC1; X33 = C[N+](C)(C)CCCCc1cn(-c2ccc(C[C@H](N[*:1])C(=O)[*:2])cc2)nn1; X16 = C[N+](C)(C)Cc1cn(-c2ccc(C[C@H](N[*:1])C(=O)[*:2])cc2)nn1; Me3N+(CH2)2O(CH2)2O(CH2)2CO = C[N+](C)(C)CCOCCOCCC(=O)*; CH2CH2OCH2CH2OCH2CH2NMe3+ = C[N+](C)(C)CCOCCOCC*; Phe(4-N3) = [N-]=[N+]=Nc1ccc(C[C@H](N)C(=O)O)cc1; Trp(7-Me) = Cc1cccc2c(C[C@H](N)C(=O)O)c[nH]c12; X20 = C[N+](C)(C)CC[C@H](N[*:1])C(=O)[*:2]; 2Nal = N[C@@H](Cc1ccc2ccccc2c1)C(=O)O; X22 = CN1CC[N+](C)(CCOCCOCC*)CC1; 3Pal = N[C@@H](Cc1cccnc1)C(=O)O; Lys(Me) = CNCCCC[C@H](N)C(=O)O; X53 = C[N+]1(CCOCCOCC*)CCOCC1; Pen = CC(C)(S)[C@H](N)C(=O)O; Thp = NC1(C(=O)O)CCOCC1; X17 = C[N+]1(CC*)CCOCC1; X3 = C[N+](C)(C)CCCCC*; Sar = CNCC(=O)O

The nature of the data set: Exposed Polar Surface Area (EPSA). It counts as physicochemical. The note with it: SFC on Chirex 3014 column; sample 1 mM DMSO stock; read-out: EPSA. In short, it runs like this:
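Polarity descriptor in Å² derived from retention time using 8 calibration standards re-run every 20 compounds. Duplicate injections of 1 mM DMSO stock; linear 5–60% modifier gradient (20 mM ammonium formate in MeOH) with CO2 at 4 mL/min, 35 °C, on a Chirex 3014 column.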
As to `CC(=O)NCCCC[C@@H]1NC(=O)[C@H](Cc2c[nH]c3c(C)cccc23)NC(=O)[C@H]([C@@H](C)O)NC(=O)[C@H](CC(N)=O)NC(=O)[C@@H](NC(C)=O)C(C)(C)SSC(C)(C)[C@@H](C(=O)N[C@@H](Cc2ccc(-n3cc(CCCC[N+](C)(C)C)nn3)cc2)C(=O)N[C@@H](Cc2ccc3ccccc3c2)C(=O)NC2(C(=O)N[C@@H](CCCCNC(C)=O)C(=O)N[C@@H](CC(N)=O)C(=O)N[C@@H](Cc3cccnc3)C(=O)N(C)CC(N)=O)CCOCC2)NC1=O` [compound 425] (Ac-[Pen]NT[Trp(7-Me)]K(Ac)[Pen][X33][2Nal][Thp]K(Ac)N[3Pal][Sar]-NH2; disulfide 1-6 (inferred)), the EPSA stood at 161 A^2.
The value for `CC(=O)NCCCC[C@@H]1NC(=O)[C@H](Cc2c[nH]c3c(C)cccc23)NC(=O)[C@H]([C@@H](C)O)NC(=O)[C@H](CC(N)=O)NC(=O)[C@@H](NC(=O)CCOCCOCC[N+](C)(C)C)C(C)(C)SSC(C)(C)[C@@H](C(=O)N[C@@H](Cc2ccc(OCCCCC[N+](C)(C)C)cc2)C(=O)N[C@@H](Cc2ccc3ccccc3c2)C(=O)NC2(C(=O)N[C@@H](CCC(=O)O)C(=O)N[C@@H](CC(N)=O)C(=O)N[C@@H](Cc3cccnc3)C(=O)N(C)CC(N)=O)CCOCC2)NC1=O` [compound 427, cPEG3aCO-Pen(3)-N-T-7MeW-K(Ac)-Pen(3)-TMAPF-2Nal-THP-E-N-3Pya-Sar-CONH2] ({Me3N+(CH2)2O(CH2)2O(CH2)2CO}-[Pen]NT[Trp(7-Me)]K(Ac)[Pen]Y(X3)[2Nal][Thp]EN[3Pal][Sar]-NH2; disulfide 1-6) was 168 A^2; that for `CC(=O)NCCCC[C@@H]1NC(=O)[C@H](Cc2c[nH]c3ccccc23)NC(=O)[C@H]([C@@H](C)O)NC(=O)[C@H](CC(N)=O)NC(=O)[C@@H](NC(=O)[C@@H](CCCNC(=N)N)NC(C)=O)C(C)(C)SSC(C)(C)[C@@H](C(=O)N[C@@H](Cc2ccc(OCC[N+]3(C)CCOCC3)cc2)C(=O)N[C@@H](Cc2ccc3ccccc3c2)C(=O)NC2(C(=O)N[C@@H](CCC(=O)O)C(=O)N[C@@H](CC(N)=O)C(=O)N[C@@H](Cc3cccnc3)C(=O)N(C)CC(N)=O)CCOCC2)NC1=O` [compound 429] (Ac-[dR][Pen]NTWK(Ac)[Pen]Y(X17)[2Nal][Thp]EN[3Pal][Sar]-NH2; disulfide 2-7) was 192 A^2.
In the case of `CC(=O)NCCCC[C@@H]1NC(=O)[C@H](Cc2c[nH]c3c(C)cccc23)NC(=O)[C@H]([C@@H](C)O)NC(=O)[C@H](CC(N)=O)NC(=O)[C@@H](NC(C)=O)C(C)(C)SSC(C)(C)[C@@H](C(=O)N[C@@H](Cc2ccc(OCC[N+]3(C)CCOCC3)cc2)C(=O)N[C@@H](Cc2ccc3ccccc3c2)C(=O)NC2(C(=O)N[C@@H](CCC(=O)O)C(=O)N[C@@H](CC(N)=O)C(=O)N[C@@H](Cc3cccnc3)C(=O)N(C)CC(N)=O)CCOCC2)NC1=O` [compound 431] (Ac-[Pen]NT[Trp(7-Me)]K(Ac)[Pen]Y(X17)[2Nal][Thp]EN[3Pal][Sar]-NH2; disulfide 1-6 (inferred)), the EPSA amounted to 174 A^2.
The value for `CC(=O)NCCCC[C@@H]1NC(=O)[C@H](Cc2c[nH]c3c(C)cccc23)NC(=O)[C@H]([C@@H](C)O)NC(=O)[C@H](CC(N)=O)NC(=O)[C@@H](NC(C)=O)C(C)(C)SSC(C)(C)[C@@H](C(=O)N[C@@H](Cc2ccc(OCCOCCOCC[N+]3(C)CCOCC3)cc2)C(=O)N[C@@H](Cc2ccc3ccccc3c2)C(=O)NC2(C(=O)N[C@@H](CCC(=O)O)C(=O)N[C@@H](CC(N)=O)C(=O)N[C@@H](Cc3cccnc3)C(=O)N(C)CC(N)=O)CCOCC2)NC1=O` [compound 432] (Ac-[Pen]NT[Trp(7-Me)]K(Ac)[Pen]Y(X53)[2Nal][Thp]EN[3Pal][Sar]-NH2; disulfide 1-6 (inferred)) was 167 A^2; that for `CC(=O)NCCCC[C@@H]1NC(=O)[C@H](Cc2c[nH]c3c(C)cccc23)NC(=O)[C@H]([C@@H](C)O)NC(=O)[C@H](CC(N)=O)NC(=O)[C@@H](NC(C)=O)C(C)(C)SSC(C)(C)[C@@H](C(=O)N[C@@H](Cc2ccc(OCCOCCOCC[N+]3(C)CCN(C)CC3)cc2)C(=O)N[C@@H](Cc2ccc3ccccc3c2)C(=O)NC2(C(=O)N[C@@H](CCC(=O)O)C(=O)N[C@@H](CC(N)=O)C(=O)N[C@@H](Cc3cccnc3)C(=O)N(C)CC(N)=O)CCOCC2)NC1=O` [compound 433] (Ac-[Pen]NT[Trp(7-Me)]K(Ac)[Pen]Y(X22)[2Nal][Thp]EN[3Pal][Sar]-NH2; disulfide 1-6 (inferred)) was 164 A^2.
`CC(=O)NCCCC[C@@H]1NC(=O)[C@H](Cc2c[nH]c3c(C)cccc23)NC(=O)[C@H]([C@@H](C)O)NC(=O)[C@H](CC(N)=O)NC(=O)[C@@H](NC(C)=O)C(C)(C)SSC(C)(C)[C@@H](C(=O)N[C@@H](Cc2ccc(N=[N+]=[N-])cc2)C(=O)N[C@@H](Cc2ccc3ccccc3c2)C(=O)NC2(C(=O)N[C@@H](CCC(=O)O)C(=O)N[C@@H](CC(N)=O)C(=O)N[C@@H](Cc3cccnc3)C(=O)N(C)CC(N)=O)CCOCC2)NC1=O` [compound 435] (Ac-[Pen]NT[Trp(7-Me)]K(Ac)[Pen][Phe(4-N3)][2Nal][Thp]EN[3Pal][Sar]-NH2; disulfide 1-6 (inferred)): the EPSA is 182 A^2.
The value for `CC(=O)N[C@@H]1C(=O)N[C@@H](CC[N+](C)(C)C)C(=O)N[C@@H]([C@@H](C)O)C(=O)N[C@@H](Cc2c[nH]c3c(C)cccc23)C(=O)N[C@@H](CCCCN(C)C(C)=O)C(=O)N[C@H](C(=O)N[C@@H](Cc2ccc(OCCOCCOCC[N+](C)(C)C)cc2)C(=O)N[C@@H](Cc2ccc3ccccc3c2)C(=O)NC2(C(=O)N[C@@H](CCCCN(C)C(C)=O)C(=O)N[C@@H](CC(N)=O)C(=O)N[C@@H](Cc3cccnc3)C(=O)N(C)CC(=O)N(C)C)CCOCC2)C(C)(C)SSC1(C)C` [compound 436] (Ac-[Pen][X20]T[Trp(7-Me)][Lys(Me)](Ac)[Pen]Y(CH2CH2OCH2CH2OCH2CH2NMe3+)[2Nal][Thp][Lys(Me)](Ac)N[3Pal][Sar]-NMe2; disulfide 1-6) was 149 A^2; that for `CC(=O)NCCCC[C@@H]1NC(=O)[C@H](Cc2c[nH]c3c(C)cccc23)NC(=O)[C@H]([C@@H](C)O)NC(=O)[C@H](CC(N)=O)NC(=O)[C@@H](NC(=O)CCOCCOCC[N+](C)(C)C)C(C)(C)SSC(C)(C)[C@@H](C(=O)N[C@@H](Cc2ccc(-n3cc(CCC[N+]4(C)CCOCC4)nn3)cc2)C(=O)N[C@@H](Cc2ccc3ccccc3c2)C(=O)NC2(C(=O)N[C@@H](CCCCNC(C)=O)C(=O)N[C@@H](CC(N)=O)C(=O)N[C@@H](Cc3cccnc3)C(=O)N(C)CC(N)=O)CCOCC2)NC1=O` [compound 439, cPEG3aCO-Pen(3)-N-T-7MeW-K(Ac)-Pen(3)-F(4TzlMMo3)-2Nal-THP-K(Ac)-N-3Pya-Sar-CONH2] ({Me3N+(CH2)2O(CH2)2O(CH2)2CO}-[Pen]NT[Trp(7-Me)]K(Ac)[Pen][X36][2Nal][Thp]K(Ac)N[3Pal][Sar]-NH2; disulfide 1-6) was 167 A^2.
As to `CC(=O)NCCCC[C@@H]1NC(=O)[C@H](Cc2c[nH]c3c(C)cccc23)NC(=O)[C@H]([C@@H](C)O)NC(=O)[C@H](CC(N)=O)NC(=O)[C@@H](NC(C)=O)C(C)(C)SSC(C)(C)[C@@H](C(=O)N[C@@H](Cc2ccc(-n3cc(C[N+](C)(C)C)nn3)cc2)C(=O)N[C@@H](Cc2ccc3ccccc3c2)C(=O)NC2(C(=O)N[C@@H](CCC(=O)O)C(=O)N[C@@H](CC(N)=O)C(=O)N[C@@H](Cc3cccnc3)C(=O)N(C)CC(N)=O)CCOCC2)NC1=O` [compound 441] (Ac-[Pen]NT[Trp(7-Me)]K(Ac)[Pen][X16][2Nal][Thp]EN[3Pal][Sar]-NH2; disulfide 1-6 (inferred)), the EPSA amounted to 176 A^2.
